Laboratory results from patent publication US10261017B2, “Methods for detecting and categorizing skin sensitizers” (University of Mississippi, priority 2014, dated 2019).
Read-outs that look alike come from different tables or passages of the source. Marks after values point to notes of the source that are not given here.

What was measured:
thiol peptide [1] = conditions: cited from earlier work; for Cys-DPRA % Pept. remain.: reported results from the literature
[2] = Microplate spectrophotometric method (DCYA assay), fluorescence end-point; conditions: for DCYA binary classification: FN: false negative; for DCYA binary classification: FP: false positive; for DCYA assay reactivity / classification in words: microplate spectrophotometric method; for DCYA binary classification: TN: true negative; for DCYA binary classification: TP: true positive, positive if 100-RI <95; for DCYA 100-RI: RI = reactivity index, 2 equiv. electrophile, pH 10 buffer
thiol peptide [3] = assay: Cys-DPRA (Direct Peptide Reactivity Assay), literature data; conditions: for Cys-DPRA binary classification: FN: false negative; for Cys-DPRA binary classification: FP: false positive; for Cys-DPRA binary classification: TN: true negative; for Cys-DPRA binary classification: TP: true positive
[4] = tested on: ARE-dependent gene activity in a recombinant cell line; conditions: cited from earlier work
[5] = cited from earlier work; for LLNA EC3: reported results (Table 7); for LLNA (EC3): effective concentration, published literature (Table 1); for LLNA Classification: published literature
[6] = NMR method: depletion of electrophile signal on reaction with DCYA
From the text: The described example can be applied to pure chemicals and mixtures. The method includes the acquisition of at least one NMR spectrum, mixing an electrophile and a nucleophile to acquire an array of control spectra and an addition of catalyst to record an array of reaction spectra. It also includes the quantification of at least one signal and the comparison of the signal with a control and the classification of the reaction based on the depletion of potential sensitizer based on the quantified residual signal.
2,5-Dimethylfuran was used as internal standard. When necessary, characterization of the product(s) formed during the reaction(s) was performed by homonuclear ^1H connectivities using 2D-COSY experiments. […] Two- and three bond ^1H-^13C connectivities were determined by gradient-HMBC experiments in which the evolution period for long-range ^1H-^13C coupling constants was optimized for a ^2,3JC,H of 8 Hz. Through-space ^1H connectivities were determined using a NOESY experiment with a mixing time of 0.450 s. […] Toronto, Canada].
In a 3 mm NMR tube, 1 volume of DCYA (100) mM in CDCl3) was mixed with one volume of sensitizer (100 mM in CDCl3) to give a final concentration of 50 mM for both DCYA and the sensitizer. Control ^1H NMR spectra (reference spectra) were recorded at regular intervals of for a minimum of 5 min. […] All spectra were recorded at constant temperature. All experiments were conducted using the manufacturer's standard presaturation pulse programs and experimental conditions were chosen as explained in NMR spectroscopy section. The progress of the reaction was followed by the diminished peak areas of the resonances for the signal of interest. The spectra were phased, referenced, and integrated using NMR data elaboration software. The structural characterizations of the resulting adducts were confirmed by conducting additional 2D-NMR experiments when necessary.
Covalent reaction of DCYA with carvone is dependent on the activation of the nucleophilic group (ex. sulfhydryl group to the reactive thio-anion) under basic conditions. This reaction is strongly dependent on the nature of the nucleophile and may be modulated by careful choice of the model nucleophile and the reaction conditions.
The control spectra are used as reference spectra (FIG. 3A). All the spectra were subjected to automatic phase and baseline correction using a Bernstein polynomial fit (order 3). After these two steps, all the spectra were integrated over the areas of interest. […] Both vinylic and adduct peak areas were normalized relative to the internal standard signal peaks. […] The concentrations of both electrophile and adduct were then plotted as percentage against time (in minutes). (FIG. 5).

[7] = based on depletion of electrophile signal at 30 min
[8] = conversion of test chemical at 90 min, 1 equiv. DCYA, 0.1 equiv. DBN, CDCl3

## CCCCBr [1-Bromobutane]
Thiol peptide [1]; literature
  Cys-DPRA reactivity in words: minimal reaction
[2]; after 24 h of incubation
  DCYA adduct after long incubation: minor DCYA adduct
[2]
  DCYA binary classification: FN: 0
  DCYA binary classification: FP: 0
  DCYA assay reactivity / classification in words: non-reactive
  DCYA binary classification: TN: 1
  DCYA binary classification: TP: 0
Thiol peptide [3]
  Cys-DPRA binary classification: FN: 0
  Cys-DPRA binary classification: FP: 1
  Cys-DPRA binary classification: TN: 0
  Cys-DPRA binary classification: TP: 0
[4]; reported results (Table 7)
  KeratinoSens ™ EC3: >2000 µM

## O=[N+]([O-])c1ccc(Cl)c([N+](=O)[O-])c1 [1-Chloro-2,4-dinitrobenzene]
Thiol peptide [1]
  Cys-DPRA % Pept. remain.: 0%
[2]
  DCYA binary classification: FN: 1
  DCYA binary classification: FP: 0
  DCYA binary classification: TN: 0
  DCYA binary classification: TP: 0
Thiol peptide [3]
  Cys-DPRA binary classification: FN: 0
  Cys-DPRA binary classification: FP: 0
  Cys-DPRA binary classification: TN: 0
  Cys-DPRA binary classification: TP: 1
[4]; reported results (Table 7)
  KeratinoSens ™ EC3: 3.89 µM

## C=C1C(=O)O[C@@H]2/C=C(/C)[C@H](O)C[C@@H](O)C(=C)C[C@H](OC(=O)/C(C)=C\C)[C@@H]12 [3 epi-hydroxyisonobilin]
[2]
  DCYA assay reactivity / classification in words: highly reactive

## CC=CC(=O)CC [4-Hex-3-en-one]
[5]
  LLNA EC3: 4.2%
[2]
  DCYA 100-RI: 2.8
  DCYA binary classification: FN: 0
  DCYA binary classification: FP: 0
  DCYA binary classification: TN: 0
  DCYA binary classification: TP: 1
Thiol peptide [3]
  Cys-DPRA binary classification: FN: 0
  Cys-DPRA binary classification: FP: 0
  Cys-DPRA binary classification: TN: 0

## CC(=O)C(=O)CC(C)C [5-Methyl-2,3-hexanedione]
Thiol peptide [1]
  Cys-DPRA % Pept. remain.: 74.2%
[2]
  DCYA 100-RI: 90.3
  DCYA binary classification: FN: 0
  DCYA binary classification: FP: 0
  DCYA binary classification: TN: 0
  DCYA binary classification: TP: 1
Thiol peptide [3]
  Cys-DPRA binary classification: FN: 0
  Cys-DPRA binary classification: FP: 0
  Cys-DPRA binary classification: TN: 0
  Cys-DPRA binary classification: TP: 1
[4]; reported results (Table 7)
  KeratinoSens ™ EC3: 332.21 µM

## Nc1ccccc1 [Aniline]
Thiol peptide [1]
  Cys-DPRA % Pept. remain.: 100%
[4]; reported results (Table 7)
  KeratinoSens ™ EC3: >2000 µM

## O=Cc1ccccc1 [Benzaldehyde]
[2]
  DCYA 100-RI: 98.1
  DCYA binary classification: FN: 0
  DCYA binary classification: FP: 0
  DCYA binary classification: TN: 1
  DCYA binary classification: TP: 0
Thiol peptide [3]
  Cys-DPRA binary classification: FN: 0
  Cys-DPRA binary classification: FP: 1
  Cys-DPRA binary classification: TN: 0
  Cys-DPRA binary classification: TP: 0

## O=C(OCc1ccccc1)c1ccccc1 [Benzyl benzoate]
[2]
  DCYA 100-RI: 110.6
  DCYA binary classification: FN: 0
  DCYA binary classification: FP: 0
  DCYA binary classification: TN: 1
  DCYA binary classification: TP: 0
Thiol peptide [3]
  Cys-DPRA binary classification: FN: 0
  Cys-DPRA binary classification: FP: 0
  Cys-DPRA binary classification: TN: 1
  Cys-DPRA binary classification: TP: 0

## CC(C)=CCCC(C)=CC=O [Citral]
[5]
  LLNA (EC3): 9.2%
  LLNA Classification: Moderate
  LLNA EC3: 9.2%
[2]
  DCYA 100-RI: 88.8
  DCYA binary classification: FN: 0
  DCYA binary classification: FP: 0
  DCYA binary classification: TN: 0
  DCYA binary classification: TP: 1
Thiol peptide [3]
  Cys-DPRA binary classification: FN: 0
  Cys-DPRA binary classification: FP: 0
  Cys-DPRA binary classification: TN: 0
  Cys-DPRA binary classification: TP: 1
[6]
  NMR assay reactivity / classification in words: moderate/low electrophilic behavior
[6]; 30 min, 50 mM
  Conversion at t30 (depletion of electrophile signal): 29%
[6]; 90 min, 50 mM
  NMR Method conversion: 29%
[6]; [7]
  NMR Classification: Weak-moderate
[4]; published literature (Table 1)
  KeratinoSens ™ EC3: 67.36 µM
[4]; reported results (Table 7)
  KeratinoSens ™ EC3: 67.36 µM

## COc1cc(/C=C/C(=O)CC(=O)/C=C/c2ccc(O)c(OC)c2)ccc1O [Curcumin]
[6]; at 30 min, only one equivalent of DCYA, curcumin in DMSO-d6
  Conversion at t30 (depletion of electrophile signal): 17^# %
[6]; at 30 min, two equivalents of DCYA, curcumin in DMSO-d6
  Conversion at t30 (depletion of electrophile signal): 43* %
[6]; at 90 min, one equivalent of DCYA, DMSO-d6
  NMR Method conversion: 18%
[6]; at 90 min, two equivalents of DCYA, DMSO-d6
  NMR Method conversion: 43%

## CC(C)=CCCC(C)=CCCC(C)=CC=O [Farnesal]
Thiol peptide [1]
  Cys-DPRA % Pept. remain.: 83.6%
Thiol peptide [3]
  Cys-DPRA binary classification: FN: 0
  Cys-DPRA binary classification: FP: 0
  Cys-DPRA binary classification: TN: 0
  Cys-DPRA binary classification: TP: 1
[4]; reported results (Table 7)
  KeratinoSens ™ EC3: >2000 µM

## CC(O)C(=O)O (stereo not drawn) [Lactic acid]
[2]
  DCYA 100-RI: 100.1
  DCYA binary classification: FN: 0
  DCYA binary classification: FP: 0
  DCYA binary classification: TN: 1
  DCYA binary classification: TP: 0
Thiol peptide [3]
  Cys-DPRA binary classification: FN: 0
  Cys-DPRA binary classification: FP: 0
  Cys-DPRA binary classification: TN: 1
  Cys-DPRA binary classification: TP: 0
[4]; reported results (Table 7)
  KeratinoSens ™ EC3: >2000 µM

## C=C(C)[C@@H]1CCC2=CC(=O)C[C@@H](C)[C@]2(C)C1 [Nootkatone]
[6]; at 30 min, 1 equiv. DCYA
  Conversion at t30 (depletion of electrophile signal): 0%
[6]; [7]
  NMR Classification: Non
[6]; [8]
  NMR Method conversion: 0%

## O=C(O)C(=O)O [Oxalic acid]
[2]
  DCYA 100-RI: 89.4
  DCYA binary classification: FN: 0
  DCYA binary classification: FP: 1
  DCYA binary classification: TN: 0
  DCYA binary classification: TP: 0
Thiol peptide [3]
  Cys-DPRA binary classification: FN: 0
  Cys-DPRA binary classification: FP: 0
  Cys-DPRA binary classification: TN: 1
  Cys-DPRA binary classification: TP: 0

## O=C1CCO1 [Propionolactone]
[2]
  DCYA binary classification: FN: 0
  DCYA binary classification: FP: 0
  DCYA binary classification: TN: 0
  DCYA binary classification: TP: 1
Thiol peptide [3]
  Cys-DPRA binary classification: FN: 0
  Cys-DPRA binary classification: FP: 0
  Cys-DPRA binary classification: TN: 0

## Oc1cccc(O)c1 [Resorcinol]
[2]
  DCYA 100-RI: 103.5
  DCYA assay reactivity / classification in words: non-reactive

## CC1=C(C=O)C(C)(C)CC=C1 [Safranal]
Thiol peptide [1]; adopted from the literature
  Cys-DPRA, percentage of thiol peptide depleted: 90.5^15%
Thiol peptide [1]
  Cys-DPRA % Pept. remain.: 9.5%
[5]
  LLNA (EC3): 7.5%
  LLNA Classification: Moderate
  LLNA EC3: 7.5%
[2]
  DCYA 100-RI: 82.9
  DCYA binary classification: FN: 0
  DCYA binary classification: FP: 0
  DCYA binary classification: TN: 0
  DCYA binary classification: TP: 1
Thiol peptide [3]
  Cys-DPRA binary classification: FN: 0
  Cys-DPRA binary classification: FP: 0
  Cys-DPRA binary classification: TN: 0
  Cys-DPRA binary classification: TP: 1
[6]
  NMR assay reactivity / classification in words: less reactive by NMR in the short time frame
[6]; at 30 min, 1 equiv. DCYA
  Conversion at t30 (depletion of electrophile signal): 3%
[6]; [7]
  NMR Classification: Non
[6]; [8]
  NMR Method conversion: 4%

## O=C(O)c1ccccc1O [Salicylic acid]
[2]
  DCYA 100-RI: 106.9
  DCYA binary classification: FN: 0
  DCYA binary classification: FP: 0
  DCYA binary classification: TN: 1
  DCYA binary classification: TP: 0
Thiol peptide [3]
  Cys-DPRA binary classification: FN: 0
  Cys-DPRA binary classification: FP: 0
  Cys-DPRA binary classification: TN: 1
  Cys-DPRA binary classification: TP: 0
[4]; reported results (Table 7)
  KeratinoSens ™ EC3: >2000 µM

## O=C(O)C(O)C(O)C(=O)O (stereo not drawn) [Tartaric acid]
[2]
  DCYA 100-RI: 100.7
  DCYA binary classification: FN: 0
  DCYA binary classification: FP: 0
  DCYA binary classification: TN: 1
  DCYA binary classification: TP: 0
Thiol peptide [3]
  Cys-DPRA binary classification: FN: 0
  Cys-DPRA binary classification: FP: 0
  Cys-DPRA binary classification: TN: 1
  Cys-DPRA binary classification: TP: 0

## C=C1CC(OC(=O)/C(C)=C/C)C2C(=C)C(=O)OC2/C=C(\C)C(O)CC1O (stereo not drawn) [hydroxyiso-nobilin, hydroxyisonobilin]
[2]
  DCYA assay reactivity / classification in words: highly reactive

## CC/C=C/C=O [t-2-Pentenal, trans-2-Pentenal]
[2]
  DCYA 100-RI: 18.2
  DCYA assay reactivity / classification in words: moderate reactive
[6]
  NMR Classification: Strong
[6]; 30 min, 50 mM
  Conversion at t30 (depletion of electrophile signal): 80%
[6]; 90 min, 50 mM
  NMR Method conversion: 80%
